Source: patent US11414488B2, “Methods for treating cancer” (BicycleRD Limited, priority 2019, dated 2022)
Like-named read-outs stand apart in the source and are kept apart here.

What was measured:
[1] = test system: orthotopic E0771 murine mammary carcinoma; details: for anti-tumor activity (in words): BT17BDC-18 at 6.2 mg/kg or 4.8 mg/kg, anti-mPD-1 10 mg/kg, paclitaxel 15 mg/kg
Description: The purpose of this study was to evaluate the anti-cancer activity of BT17BDC-18 alone and in combination with anti-mPD-1 against established orthotopic E0771 murine mammary carcinoma in female C57BL/6 mice.
All mice were sorted into study groups based on caliper estimation of tumor burden. The mice were distributed to ensure that the mean tumor burden for all groups was within 10% of the overall mean tumor burden for the study population.
All animals weighed at least 16.6 g at the initiation of therapy. […] A tumor burden of 2000 mm^3, was chosen for evaluation of efficacy by time to progression (time to euthanasia/death).
Treatment-related weight change—This is a group endpoint calculated from the group mean body weights. It is calculated differently for specific circumstances as follows: • If (at any point between the first day of treatment and two weeks after the final treatment) the mean group body weight decreases by more than 2%, the maximum weight loss is reported, even if body weight eventually rebounded during treatment to a net weight gain. […] To assess the contribution of test agents to weight loss, Net Treatment Related Weight Loss may be used. […] When this occurs, net weight loss is calculated by normalizing for tumor burden. We do this by constructing a plot of control group mean tumor burden vs control group mean weight loss, using all of the weight data available for the control group. […] This value is then subtracted from the mean weight loss in the treated group to generate the net weight loss for the treated group on that day. The calculated net weight loss is then used to estimate the tolerance to the drug.
Time to Progression (TP)—Time to progression is a surrogate for lifespan, time on study, or lifespan. It is used for studies that involve IACUC mandated euthanasia of animals for excessive tumor burdens (even if the animals otherwise appear normal). The mandated tumor burden limit is tumor model dependent. TP data is analyzed by Kaplan Meier methods just as traditional life span data. The Time to Progression for an individual animal is the number of days between initiation of treatment and the death or required euthanasia of that animal. […] This puts all animals on the same footing, and removes the impact of possibly delayed euthanasia (which may occur for sampling, or weekends and holidays). Animals euthanized for scheduled sampling or other causes unrelated to disease progression or therapy are excluded from this calculation. The median Time to Progression for a group is used to calculate the % Increase in Time to Progression (% ITP).
% Increase in Time to Progression (% ITP)—% ITP is a group endpoint.
Complete Regression (CR)—An animal is credited a complete regression if its tumor burden is reduced to an immeasurable volume at any point after the first treatment. Our convention is to record any tumor measurement less than 5 mm as a “0.” The CR must be maintained for at least 2 consecutive measurements. This is in keeping with the convention of the NCI and reflects the inherent and unacceptably high mechanical error in such measurements in addition to the uncertain biology of what is measured at those small sizes.

[2] = Tolerability and deaths in E0771 study (Example 3); type: in vivo, Mouse; details: single agent paclitaxel 15 mg/kg; considered non-specific deaths, treatment not completely ruled out
Description: Animals euthanized during the same period for other causes (sampling, accidental trauma, etc.) are excluded from this calculation. […] (Group toxicity parameter)

[3] = BT17BDC-18 6.2 mg/kg IV Q7Dx4, anti-mPD-1 10 mg/kg IP, paclitaxel 15 mg/kg IV Q7Dx4, alone or combined

CC(=O)O[C@H]1C(=O)[C@@]2(C)[C@H]([C@H](OC(=O)c3ccccc3)[C@]3(O)C[C@H](OC(=O)[C@H](O)[C@@H](NC(=O)c4ccccc4)c4ccccc4)C(C)=C1C3(C)C)[C@]1(OC(C)=O)CO[C@@H]1C[C@@H]2O [Paclitaxel]
% increase in time to progression [1, 3]: 17.9%
Day 36 median ΔT/ΔC [1, 3]: 94%
increase in time to progression [1, 3]: 4.0 days
anti-tumor activity (in words) [1]: Poor response
anti-tumor activity (in words) ([1]; listed as paclitaxel): mildly active
deaths in group [2]: two
